The test system of one experiment is CSE. Format: cell-based.
Another experiment deals with p-eNOS. It counts as cell-based.
For another experiment, the system named is Total NO. As to the kind of experiment: Single COVID-19 case study: plasma total NO (ozone-based chemiluminescence). The conditions noted are these: single COVID-19 subject, 280 nM during infection, 400 nM baseline.
A further experiment relates to C-reactive protein (CRP). The experiment can be described thus: Single COVID-19 case study: CRP levels. The following applies: single COVID-19 subject, following remdesivir for 5 days; 1.35 and 1.77 mg/dL during infection; normal range 0.3-1.0 mg/dL.
The subject of a further experiment is sulfide. The experiment can be described thus: Single COVID-19 case study: plasma sulfide (monobromobimane method). Format: in vivo, human. The conditions noted are these: single COVID-19 subject, 14 days post-treatment.

Each structure is given as a SMILES string.

From patent US20220273702A1, “HYDROGEN SULFIDE AND NITRIC OXIDE THERAPY FOR COVID-19 INFECTION” (Board of Supervisors of Louisiana State University and …, priority 2021, published 2022) come the findings set out here.

In the case of `C=CCSSSCC=C` [DATS, diallyl trisulfide], in the experiment on CSE, the “restoration of CSE protein expression” value is on record as “two-fold”. Also, the “restoration of p-eNOS protein expression” value in the experiment with p-eNOS is “two-fold”.

Consider `CCC(CC)COC(=O)[C@H](C)N[P@](=O)(OC[C@H]1O[C@@](C#N)(c2ccc3c(N)ncnn23)[C@H](O)[C@@H]1O)Oc1ccccc1` [remdesivir], for which the “Total NO level” value is given as 200 nM in the experiment with Total NO (5 days post-treatment) and 280 nM with Total NO (14 days post-treatment). This compound displayed a CRP level with C-reactive protein (CRP) of 0.78 mg/dL. In the experiment on sulfide, the sulfide level was found to be 1.447 µM.
